Here are results for 3 molecules from patent US20170008888A1 (KYORIN PHARMACEUTICAL CO., LTD., priority 2014, published 2017).

For one assay, the target named is T1, ERK5 (Homo sapiens, UniProt Q13164).
T1 construct: screened for activity against several kinases in Jurkat cells; endogenous in cells; host or cells: Jurkat cell lysate
As to the kind of experiment: Probe-based (AX9989 acyl phosphate ATP probe) kinase profiling in Jurkat lysate: ERK5. It counts as binding. The settings on record: for IC50: Jurkat lysate. The procedure, abridged: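 Gel-filtered Jurkat lysate (5 mg/ml, 20 mM MnCl2) preincubated 15 min at room temperature with compound, then labelled with 5 μM AX9989 acyl phosphate ATP probe. Probe-labelled ERK5 active-site peptides quantified by LC/MS after trypsin digestion and streptavidin capture; IC50 calculated from percent inhibition at the screening concentration.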

In another assay the target is T2, AurA (Homo sapiens, UniProt O14965).
T2 construct: screened for activity against several kinases in Jurkat cells; endogenous in cells; host or cells: Jurkat cell lysate
T2 sequence (O14965 1-403): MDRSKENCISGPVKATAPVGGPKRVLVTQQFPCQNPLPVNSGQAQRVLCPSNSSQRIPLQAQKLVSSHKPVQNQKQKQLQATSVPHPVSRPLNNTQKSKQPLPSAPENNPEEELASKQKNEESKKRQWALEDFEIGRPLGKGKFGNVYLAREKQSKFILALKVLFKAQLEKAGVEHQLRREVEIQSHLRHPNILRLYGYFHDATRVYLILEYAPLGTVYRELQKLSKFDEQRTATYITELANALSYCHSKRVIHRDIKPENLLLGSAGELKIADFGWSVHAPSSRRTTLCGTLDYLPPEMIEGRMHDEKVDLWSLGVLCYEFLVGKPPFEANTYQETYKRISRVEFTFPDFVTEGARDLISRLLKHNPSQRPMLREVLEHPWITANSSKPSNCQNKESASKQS
The assay can be described thus: Probe-based (AX9989) kinase profiling in Jurkat lysate: AurA. It counts as binding. Put shortly:
(§1)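 Jurkat lysate, HEPES pH 7.5 buffer + 20 mM MnCl2; cpd 15 min RT; AX9989 ATP probe 5 μM final, RT. Trypsin digest, streptavidin capture, LC/MS; % inhibition vs vehicle from labeled-peptide signal.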

In another assay the test system is AurB or AurC. As to the kind of experiment: Probe-based (AX9989) kinase profiling in Jurkat lysate: AurB or AurC. It counts as binding. The procedure, abridged:
as §1

In another assay the target is T3, JAK1 (Homo sapiens, UniProt P23458).
T3 construct: screened for activity against several kinases in Jurkat cells; endogenous in cells; host or cells: Jurkat cell lysate
T3 sequence (P23458 whole entry): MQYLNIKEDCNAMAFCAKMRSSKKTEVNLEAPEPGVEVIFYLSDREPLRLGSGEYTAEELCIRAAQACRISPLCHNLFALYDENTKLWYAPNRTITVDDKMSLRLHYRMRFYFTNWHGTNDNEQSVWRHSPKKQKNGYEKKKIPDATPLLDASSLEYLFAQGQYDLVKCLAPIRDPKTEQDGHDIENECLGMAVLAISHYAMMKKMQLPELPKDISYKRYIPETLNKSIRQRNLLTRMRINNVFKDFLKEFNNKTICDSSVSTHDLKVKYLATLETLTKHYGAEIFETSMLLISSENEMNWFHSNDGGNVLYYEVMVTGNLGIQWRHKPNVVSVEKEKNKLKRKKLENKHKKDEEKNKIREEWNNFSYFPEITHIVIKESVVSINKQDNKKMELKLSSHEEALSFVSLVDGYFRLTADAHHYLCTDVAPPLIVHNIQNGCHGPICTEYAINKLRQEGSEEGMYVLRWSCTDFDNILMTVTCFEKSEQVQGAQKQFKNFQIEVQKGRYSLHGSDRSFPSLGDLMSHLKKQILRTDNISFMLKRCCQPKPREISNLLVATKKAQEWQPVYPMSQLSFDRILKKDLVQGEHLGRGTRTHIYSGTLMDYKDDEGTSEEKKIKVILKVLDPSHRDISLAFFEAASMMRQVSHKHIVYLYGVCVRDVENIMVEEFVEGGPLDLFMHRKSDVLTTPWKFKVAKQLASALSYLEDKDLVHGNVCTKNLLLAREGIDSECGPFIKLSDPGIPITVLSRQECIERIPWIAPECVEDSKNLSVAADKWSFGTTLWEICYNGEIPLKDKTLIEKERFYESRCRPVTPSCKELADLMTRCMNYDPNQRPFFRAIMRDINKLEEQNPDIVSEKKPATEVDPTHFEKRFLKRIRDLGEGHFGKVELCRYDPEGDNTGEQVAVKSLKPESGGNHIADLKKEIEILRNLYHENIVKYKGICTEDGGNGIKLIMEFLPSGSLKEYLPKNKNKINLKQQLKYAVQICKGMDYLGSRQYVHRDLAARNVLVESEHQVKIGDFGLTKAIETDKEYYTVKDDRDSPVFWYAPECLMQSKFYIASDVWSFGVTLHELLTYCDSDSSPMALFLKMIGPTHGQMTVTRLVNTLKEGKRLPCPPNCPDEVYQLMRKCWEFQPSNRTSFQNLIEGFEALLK
The assay can be described thus: Probe-based (AX9989) kinase profiling in Jurkat lysate: JAK1. Format: binding. Put shortly:
as §1

A further assay has as its system AMPKa1 or AMPKa2. As to the kind of experiment: Probe-based (AX9989) kinase profiling in Jurkat lysate: AMPKa1 or AMPKa2. It counts as binding. The procedure, abridged:
as §1

The target of another assay is T4, TAO2 (Homo sapiens, UniProt Q9UL54).
T4 construct: screened for activity against several kinases in Jurkat cells; endogenous in cells; host or cells: Jurkat cell lysate
T4 sequence (Q9UL54 1-1235): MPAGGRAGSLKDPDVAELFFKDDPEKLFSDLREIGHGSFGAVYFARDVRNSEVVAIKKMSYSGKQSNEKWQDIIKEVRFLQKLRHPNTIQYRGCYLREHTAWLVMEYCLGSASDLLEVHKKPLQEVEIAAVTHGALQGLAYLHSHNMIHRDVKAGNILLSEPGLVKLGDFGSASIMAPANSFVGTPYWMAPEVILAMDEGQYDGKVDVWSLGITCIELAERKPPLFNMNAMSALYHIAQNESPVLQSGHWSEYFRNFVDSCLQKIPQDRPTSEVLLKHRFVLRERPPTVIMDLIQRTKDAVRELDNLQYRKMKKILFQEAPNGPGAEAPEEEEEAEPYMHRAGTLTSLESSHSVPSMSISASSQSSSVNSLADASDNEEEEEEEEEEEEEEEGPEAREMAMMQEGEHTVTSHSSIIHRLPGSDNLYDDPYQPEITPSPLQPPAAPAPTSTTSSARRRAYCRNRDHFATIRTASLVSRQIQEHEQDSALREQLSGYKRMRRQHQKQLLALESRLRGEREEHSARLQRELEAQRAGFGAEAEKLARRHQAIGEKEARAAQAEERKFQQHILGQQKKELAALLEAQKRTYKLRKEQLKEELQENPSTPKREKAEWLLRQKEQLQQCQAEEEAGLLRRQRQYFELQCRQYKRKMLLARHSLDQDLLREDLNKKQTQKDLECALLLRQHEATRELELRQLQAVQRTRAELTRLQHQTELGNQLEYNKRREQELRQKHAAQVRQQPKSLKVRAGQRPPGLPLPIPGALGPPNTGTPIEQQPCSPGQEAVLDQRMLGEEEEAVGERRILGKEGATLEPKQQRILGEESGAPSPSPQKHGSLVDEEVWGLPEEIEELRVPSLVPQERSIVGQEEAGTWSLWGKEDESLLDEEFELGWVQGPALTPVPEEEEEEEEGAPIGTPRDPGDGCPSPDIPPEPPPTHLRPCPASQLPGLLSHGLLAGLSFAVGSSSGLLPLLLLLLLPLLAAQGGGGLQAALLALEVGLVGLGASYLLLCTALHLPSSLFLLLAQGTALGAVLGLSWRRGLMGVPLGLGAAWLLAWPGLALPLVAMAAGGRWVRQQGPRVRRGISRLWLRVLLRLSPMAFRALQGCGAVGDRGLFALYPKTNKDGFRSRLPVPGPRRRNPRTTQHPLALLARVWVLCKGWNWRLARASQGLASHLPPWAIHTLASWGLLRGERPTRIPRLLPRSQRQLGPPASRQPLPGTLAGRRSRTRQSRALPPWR
The assay can be described thus: Probe-based (AX9989) kinase profiling in Jurkat lysate: TAO2. Format: binding. Put shortly:
as §1

The target of the next assay is T5, ACK (Homo sapiens, UniProt Q07912).
T5 construct: screened for activity against several kinases in Jurkat cells; endogenous in cells; host or cells: Jurkat cell lysate
T5 sequence (Q07912 whole entry): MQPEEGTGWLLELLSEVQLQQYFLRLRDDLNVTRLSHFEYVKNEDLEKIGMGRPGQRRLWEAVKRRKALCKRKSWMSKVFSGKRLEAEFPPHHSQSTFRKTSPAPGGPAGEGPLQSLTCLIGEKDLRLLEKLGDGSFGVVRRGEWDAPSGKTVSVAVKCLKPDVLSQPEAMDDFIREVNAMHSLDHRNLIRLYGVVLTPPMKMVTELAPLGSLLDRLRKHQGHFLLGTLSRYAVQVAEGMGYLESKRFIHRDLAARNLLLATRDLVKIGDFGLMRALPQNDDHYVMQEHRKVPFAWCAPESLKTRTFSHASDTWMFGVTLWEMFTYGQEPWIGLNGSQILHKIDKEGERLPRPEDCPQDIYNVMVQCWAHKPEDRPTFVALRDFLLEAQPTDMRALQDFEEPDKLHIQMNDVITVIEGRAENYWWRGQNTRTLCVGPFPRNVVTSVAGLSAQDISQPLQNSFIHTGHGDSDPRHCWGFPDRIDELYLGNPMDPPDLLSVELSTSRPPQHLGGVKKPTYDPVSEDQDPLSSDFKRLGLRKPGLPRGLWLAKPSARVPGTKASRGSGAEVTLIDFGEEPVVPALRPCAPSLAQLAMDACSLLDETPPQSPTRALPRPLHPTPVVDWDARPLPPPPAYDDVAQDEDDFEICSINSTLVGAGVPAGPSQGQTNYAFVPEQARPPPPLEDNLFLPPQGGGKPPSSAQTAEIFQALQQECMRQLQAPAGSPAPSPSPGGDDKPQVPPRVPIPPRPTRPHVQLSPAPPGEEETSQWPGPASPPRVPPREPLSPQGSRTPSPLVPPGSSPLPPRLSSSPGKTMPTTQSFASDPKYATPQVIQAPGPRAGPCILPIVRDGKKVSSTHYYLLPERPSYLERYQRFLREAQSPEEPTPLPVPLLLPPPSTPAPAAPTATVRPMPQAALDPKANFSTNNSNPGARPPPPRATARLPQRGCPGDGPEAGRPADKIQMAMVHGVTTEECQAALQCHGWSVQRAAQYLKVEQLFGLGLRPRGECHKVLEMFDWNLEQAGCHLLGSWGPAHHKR
As to the kind of experiment: Probe-based (AX9989) kinase profiling in Jurkat lysate: ACK. It counts as binding. The procedure, abridged: as §1

The subject of the next assay is ABL or ARG. As to the kind of experiment: Probe-based (AX9989) kinase profiling in Jurkat lysate: ABL or ARG. It counts as binding. The procedure, abridged: as §1
The subject of the next assay is human PBMCs. The assay can be described thus: Human PBMC TNF-α response to endotoxin (ELISA). The settings on record: 0.1 μg/ml LPS 16 h, read-out: EC50 for the inhibition of the human PBMC TNF-α response to endotoxin, ave. ± S.D. It counts as cell-based. As for the experimental part:
Human PBMCs (Astarte Biologics, Redmond, Wash.) were seeded at 2e6 cells/ml in RPMI 1640 containing 10% (v/v) charcoal-dextran treated, heat inactivated FBS (Omega Scientific, Tarzana, Calif.), 0.05 mM 2-Mercaptoethanol (Sigma-Aldrich, St. Louis, Mo.), and 1×Pen/Strep Amphotericin B (Lonza, Allendale, N.J.). Cells were pre-treated with test compounds (10 μM down by ⅕ in a 4-point serial dilution series) for 1 h at 37° C. in a humidified atmosphere at 5% CO2. Cells were then stimulated with 0.1 μg/ml lipopolysaccharide (LPS) from E. coli 0111:B4 (EMD Millipore, Billerica, Mass.) for 16 h at 37° C. in a humidified atmosphere at 5% CO2. Supernatant was collected and a 25-fold dilution was analyzed for TNF-α concentration using an ELISA kit from Life Technologies (Grand Island, N.Y.) according to the manufacturer's instructions. Absorbance at 450 nm was read using the Synergy 2 multi-detection microplate reader (BioTek Instruments, Winooski, Vt.).

The mark [1] stands for this setting: calculated from percent inhibition and screening concentration, AX9989 probe.

Like-named read-outs stand apart in the source and are kept apart here.

T1 sequence (Q13164 whole entry): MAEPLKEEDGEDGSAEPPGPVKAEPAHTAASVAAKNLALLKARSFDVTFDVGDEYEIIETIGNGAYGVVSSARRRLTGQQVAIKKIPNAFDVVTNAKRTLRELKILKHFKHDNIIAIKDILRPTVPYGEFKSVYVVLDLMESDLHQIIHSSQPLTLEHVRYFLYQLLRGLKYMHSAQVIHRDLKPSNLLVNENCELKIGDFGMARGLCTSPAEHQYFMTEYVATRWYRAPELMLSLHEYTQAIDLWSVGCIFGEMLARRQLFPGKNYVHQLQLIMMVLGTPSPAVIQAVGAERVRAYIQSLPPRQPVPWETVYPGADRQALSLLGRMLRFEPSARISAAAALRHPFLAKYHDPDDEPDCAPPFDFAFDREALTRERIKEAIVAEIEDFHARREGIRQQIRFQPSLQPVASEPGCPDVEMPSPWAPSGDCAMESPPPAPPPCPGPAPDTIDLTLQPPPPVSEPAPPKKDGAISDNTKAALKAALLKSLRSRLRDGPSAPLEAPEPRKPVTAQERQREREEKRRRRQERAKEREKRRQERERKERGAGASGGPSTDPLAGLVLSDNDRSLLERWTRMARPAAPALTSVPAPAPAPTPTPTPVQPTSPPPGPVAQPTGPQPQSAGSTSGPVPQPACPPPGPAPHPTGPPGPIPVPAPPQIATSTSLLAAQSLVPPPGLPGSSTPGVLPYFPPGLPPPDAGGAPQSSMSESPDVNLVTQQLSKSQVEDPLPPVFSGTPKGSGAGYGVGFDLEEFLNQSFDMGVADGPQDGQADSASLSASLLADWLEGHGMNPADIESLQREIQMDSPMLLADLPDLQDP

Regarding `CCOc1cc(C(=O)NCCN2CCOCC2)ccc1Nc1cc2c(cn1)N(C)C(=O)c1ccccc1N2C` [Compound 5], the IC50 on ERK5 (calculated from percent inhibition of AX9989 labeling and the screening concentration) is 101 to 500 nM. Moreover, the inhibition at 1 µM on ERK5 (screening concentration 1.0 μM, read-out: Kinase inhibition % at indicated screening concentration: ERK5) is 50 to 75%; on AurA (screening concentration 1.0 μM, read-out: Kinase inhibition % at indicated screening concentration: AurA), not above 35%; on JAK1 (screening concentration 1.0 μM, read-out: Kinase inhibition % at indicated screening concentration: JAK1), not above 35%; on TAO2 (screening concentration 1.0 μM, read-out: Kinase inhibition % at indicated screening concentration: TAO2), not above 35%; on ACK (screening concentration 1.0 μM, read-out: Kinase inhibition % at indicated screening concentration: ACK), not above 35%. For the same molecule, the “Kinase inhibition % at indicated screening concentration: AurB or AurC” value with AurB or AurC (screening concentration 1.0 μM) was “E (E is ≦35%)”. In addition, the “Kinase inhibition % at indicated screening concentration: AMPKa1 or AMPKa2” value with AMPKa1 or AMPKa2 (screening concentration 1.0 μM) is “E (E is ≦35%)”. In addition, the “Kinase inhibition % at indicated screening concentration: ABL or ARG” value in the assay with ABL or ARG (screening concentration 1.0 μM) is given as “D (D is >35% to ≦50%)”. In addition, in the assay on human PBMCs, the EC50 was determined as 1750 nM.
Regarding `CCOc1cc(C(=O)N2CC[C@@H](N(C)C)C2)ccc1Nc1cc2c(cn1)N(C)S(=O)(=O)c1ccccc1N2C` [Compound T3], at ERK5 (setting [1]), the IC50 is more than 500 nM. Moreover, the inhibition at 10 µM at ERK5 (screening concentration 10 μM, read-out: ERK5 Inhibition % at indicated screening concentration) is not above 35%; on AurA (screening concentration 10 μM, read-out: AurA Inhibition % at indicated screening concentration) it was not above 35%; on JAK1 (screening concentration 10 μM, read-out: JAK1 Inhibition % at indicated screening concentration), not above 35%; on TAO2 (screening concentration 10 μM, read-out: TAO2 Inhibition % at indicated screening concentration), not above 35%; on ACK (screening concentration 10 μM, read-out: ACK Inhibition % at indicated screening concentration) it was not above 35%. In addition, in the assay on AurB or AurC (screening concentration 10 μM), the “AurB or AurC Inhibition % at indicated screening concentration” value was “E (E is ≦35%)”. In the assay on AMPKa1 or AMPKa2 (screening concentration 10 μM), the “AMPKa1 or AMPKa2 Inhibition % at indicated screening concentration” value is recorded as “E (E is ≦35%)”. In addition, the “ABL or ARG Inhibition % at indicated screening concentration” value in the assay with ABL or ARG (screening concentration 10 μM) is “E (E is ≦35%)”.
Regarding `CCOc1cc(C(=O)N2CCOCC2)ccc1Nc1cc2c(cn1)N(C)C(=O)c1ccccc1S2` [Compound T82, 3-((2-ethoxy-4-(morpholine-4-carbonyl)phenyl)amino)-11-methylbenzo[f]pyrido[4,3-b][1,4]thiazepin-10(11H)-one], the IC50 on ERK5 (setting [1]) is 101 to 500 nM. In addition, the inhibition at 1 µM was 50 to 75% at ERK5 (screening concentration 1 μM, read-out: ERK5 Inhibition % at indicated screening concentration); not above 35% at AurA (screening concentration 1 μM, read-out: AurA Inhibition % at indicated screening concentration); not above 35% on JAK1 (screening concentration 1 μM, read-out: JAK1 Inhibition % at indicated screening concentration); not above 35% at TAO2 (screening concentration 1 μM, read-out: TAO2 Inhibition % at indicated screening concentration); not above 35% on ACK (screening concentration 1 μM, read-out: ACK Inhibition % at indicated screening concentration). Besides, the “AurB or AurC Inhibition % at indicated screening concentration” value with AurB or AurC (screening concentration 1 μM) is “E (E is ≦35%)”. Further, the “AMPKa1 or AMPKa2 Inhibition % at indicated screening concentration” value with AMPKa1 or AMPKa2 (screening concentration 1 μM) was “E (E is ≦35%)”. Also, the “ABL or ARG Inhibition % at indicated screening concentration” value in the assay with ABL or ARG (screening concentration 1 μM) is “E (E is ≦35%)”.

Broadly, the IC50 is the concentration that gives 50% inhibition. What is called EC50 is the concentration giving half of the maximal effect.
